Source: patent US20040110771A1, “7-(r)-aminotriazolopyrimidines, the production thereof and use of the same for combatting phytopathogenic fungi” (priority 2000, published 2004)

Legend:
[1] = system: Pyrenophora teres; experiment: Activity against net blotch of barley caused by Pyrenophora teres; assay type: in vivo; conditions: barley seedlings "Igri", inoculated 24 h after spraying, 6 days
Procedure: (§1) The active compounds were prepared separately or jointly as a 10% strength emulsion in a mixture of 70% by weight of cyclohexanone, 20% by weight of Nekanil® LN (Lutensol® AP6, wetting agent having emulsifying and dispersing action based on ethoxylated alkylphenols) and 10% by weight of Wettol® EM (nonionic emulsifier based on ethoxylated castor oil) and diluted with water to the desired concentration.
Leaves of potted barley seedlings of the cultivar “Igri” were sprayed to runoff point with an aqueous preparation of active compound which had been prepared from a stock solution made of 10% of active compound, 85% of cyclohexanone and 5% of emulsifier and were inoculated 24 hours after the spray coating had dried on with an aqueous spore suspension of Pyrenophora teres, the net blotch pathogen. The test plants were then placed in a greenhouse at 20-24° C. and 95-100% relative atmospheric humidity. After 6 days, the extent of the development of the disease was determined visually in % infection of the entire leaf area.

[2] = system: Blumeria graminis forma specialis tritici; experiment: Activity against mildew of wheat caused by Blumeria graminis forma specialis tritici; assay type: in vivo; conditions: wheat seedlings "Kanzler", dusted with spores 24 h after spraying, 7 days
Procedure: as §1
Leaves of potted wheat seedlings of the cultivar “Kanzler” were sprayed to runoff point with an aqueous preparation of active compound which had been prepared from a stock solution made of 10% of active compound, 85% of cyclohexanone and 5% of emulsifier and were dusted 24 hours after the spray coating had dried on with spores of mildew of wheat (Blumeria graminis forma specialis tritici). The test plants were then placed in a greenhouse at 20-24° C. and 60-90% relative atmospheric humidity. After 7 days, the extent of the mildew development was determined visually in % infection of the entire leaf area.

Compound | % infection of the leaves after application of an aqueous preparation comprising . . . ppm of active compound ([1]; 16 ppm) | % infection of the leaves after application of an aqueous preparation comprising . . . ppm of active compound ([1]; 63 ppm) | % infection of the leaves after application of an aqueous preparation comprising . . . ppm of active compound ([1]; 250 ppm) | % infection of the leaves after application of an aqueous preparation comprising . . . ppm of active compound ([2]; 16 ppm) | % infection of the leaves after application of an aqueous preparation comprising . . . ppm of active compound ([2]; 63 ppm) | % infection of the leaves after application of an aqueous preparation comprising . . . ppm of active compound ([2]; 250 ppm)
Cc1cccc(F)c1-c1c(Cl)nc2ncnn2c1NC(C)C(C)(C)C (single isomer, unassigned) [I.-12a] | 0% | 0% | 0% | 7% | 7% | 7%
Cc1cccc(F)c1-c1c(Cl)nc2ncnn2c1N[C@H](C)C(C)(C)C (single isomer, unassigned) [I.-12b] | 7% | 7% | 0% | 60% | 60% | 60%
CC(Nc1c(-c2c(F)cccc2F)c(Cl)nc2ncnn12)C(C)(C)C (stereo not shown) [I.-6] | 0% | 0% | – | – | 50% | 40%
CC(Nc1c(-c2c(Cl)cccc2Cl)c(Cl)nc2ncnn12)C(C)(C)C (stereo not shown) [I.-9] | 0% | 0% | 0% | – | – | –
Cc1cc(F)ccc1-c1c(Cl)nc2ncnn2c1NC(C)C(C)(C)C (stereo not shown) [I.-24] | – | – | – | 10% | 5% | 3%
CCCCCC(C)Nc1c(-c2c(F)cc(F)cc2F)c(Cl)nc2ncnn12 (stereo not shown) [I.-28] | 90% | 40% | 20% | – | – | –
C[C@@H](Nc1c(-c2c(F)cc(F)cc2F)c(Cl)nc2ncnn12)C1CCCCC1 [I.-31] | 40% | 3% | 0% | 15% | 7% | 5%
C[C@H](Nc1c(-c2c(Cl)cccc2Cl)c(Cl)nc2ncnn12)C(C)(C)C [comparison (S)-amine of I.-9] | 100% | 100% | 100% | – | – | –
Cc1cc(F)ccc1-c1c(Cl)nc2ncnn2c1NC(C)C(C)(C)C [comparison (S)-amine of I.-24] | – | – | – | 60% | 60% | 15%
CCCCC[C@H](C)Nc1c(-c2c(F)cc(F)cc2F)c(Cl)nc2ncnn12 [comparison (S)-amine of I.-28] | 100% | 100% | 100% | – | – | –
